# Results taken from ChEMBL document CHEMBL3885881, “DrugMatrix”.
# Species: Rattus norvegicus
# Assay: DrugMatrix - Regimen: Daily Repeat
# Assay type: toxicity, organism-based, Sprague-Dawley
# Parameters: regimen Daily Repeat, gender Male, age 6-8 weeks
# Details: in vivo, po, route oral GAVAGE, […]; for ABSOLUTE BASOPHIL / ABSOLUTE EOSINOPHIL / ABSOLUTE LYMPHOCYTE / ABSOLUTE MONOCYTE / ABSOLUTE SEGMENTED NEUTROPHIL / BASOPHIL / EOSINOPHIL / ERYTHROCYTE COUNT / HEMATOCRIT / HEMOGLOBIN / LEUKOCYTE COUNT / LYMPHOCYTE / MEAN CORPUSCULAR HEMOGLOBIN / MEAN CORPUSCULAR HEMOGLOBIN CONCENTRATION / MEAN CORPUSCULAR VOLUME / MONOCYTE / NEUTROPHIL / NUCLEATED RED BLOOD CELLS / PLATELET COUNT: tissue Blood; for ALANINE AMINOTRANSFERASE / ALBUMIN / ALKALINE PHOSPHATASE / ASPARTATE AMINOTRANSFERASE / BLOOD UREA NITROGEN / CARBON DIOXIDE / CHLORIDE / CHOLESTEROL / CREATINE PHOSPHOKINASE / CREATININE / GLUCOSE / LACTATE DEHYDROGENASE / LIPASE / PHOSPHORUS / POTASSIUM / SODIUM / TOTAL BILIRUBIN / TOTAL PROTEIN / URIC ACID: tissue Plasma
# [1] = 100 mg/kg, 120 h, dose level Low, time 5 day
# [2] = 1000 mg/kg, 72 h, dose level High, time 3 day
# [3] = 1000 mg/kg, 120 h, dose level High, time 5 day
smiles,measurement,setting,value
CCCC[C@@H](CC)COC(=O)c1ccccc1C(=O)OC[C@@H](CC)CCCC [BIS(2-ETHYLHEXYL)PHTHALATE],ABSOLUTE BASOPHIL,[1],0 CELLS/uL
same,ABSOLUTE EOSINOPHIL,[1],0 CELLS/uL
same,ABSOLUTE LYMPHOCYTE,[1],8094 CELLS/uL
same,ABSOLUTE MONOCYTE,[1],0 CELLS/uL
same,ABSOLUTE SEGMENTED NEUTROPHIL,[1],772.67 CELLS/uL
same,BASOPHIL,[1],0%
same,EOSINOPHIL,[1],0%
same,ERYTHROCYTE COUNT,[1],5.86 x10E6/uL
same,HEMATOCRIT,[1],36.1%
same,HEMOGLOBIN,[1],13.63 G/DL
same,LEUKOCYTE COUNT,[1],8.87 x10E3/uL
same,LYMPHOCYTE,[1],92.33%
same,MEAN CORPUSCULAR HEMOGLOBIN,[1],23.33 pg
same,MEAN CORPUSCULAR HEMOGLOBIN CONCENTRATION,[1],37.8 G/DL
same,MEAN CORPUSCULAR VOLUME,[1],61.67 fL
same,MONOCYTE,[1],0%
same,NEUTROPHIL,[1],7.67%
same,NUCLEATED RED BLOOD CELLS,[1],0 /100WBC
same,PLATELET COUNT,[1],682.33 x10E3/uL
same,ALANINE AMINOTRANSFERASE,[1],80 u/L
same,ALBUMIN,[1],4.27 G/DL
same,ALKALINE PHOSPHATASE,[1],577.33 u/L
same,ASPARTATE AMINOTRANSFERASE,[1],98.33 u/L
same,BLOOD UREA NITROGEN,[1],14.67 mg/dL
same,CARBON DIOXIDE,[1],35.67 mmol/L
same,CHLORIDE,[1],99 MEQ/L
same,CHOLESTEROL,[1],41 mg/dL
same,CREATINE PHOSPHOKINASE,[1],172 u/L
same,CREATININE,[1],0.21 mg/dL
same,GLUCOSE,[1],156.33 mg/dL
same,LACTATE DEHYDROGENASE,[1],135.33 u/L
same,LIPASE,[1],22.33 u/L
same,PHOSPHORUS,[1],10.4 mg/dL
same,POTASSIUM,[1],5.25 MEQ/L
same,SODIUM,[1],144.53 MEQ/L
same,TOTAL BILIRUBIN,[1],0.17 mg/dL
same,TOTAL PROTEIN,[1],5.63 G/DL
same,URIC ACID,[1],0.63 mg/dL
same,ABSOLUTE BASOPHIL,[2],0 CELLS/uL
same,ABSOLUTE EOSINOPHIL,[2],0 CELLS/uL
same,ABSOLUTE LYMPHOCYTE,[2],10510 CELLS/uL
same,ABSOLUTE MONOCYTE,[2],28 CELLS/uL
same,ABSOLUTE SEGMENTED NEUTROPHIL,[2],628.67 CELLS/uL
same,BASOPHIL,[2],0%
same,EOSINOPHIL,[2],0%
same,ERYTHROCYTE COUNT,[2],5.07 x10E6/uL
same,HEMATOCRIT,[2],32.33%
same,HEMOGLOBIN,[2],12.8 G/DL
same,LEUKOCYTE COUNT,[2],11.17 x10E3/uL
same,LYMPHOCYTE,[2],93.67%
same,MEAN CORPUSCULAR HEMOGLOBIN,[2],25.3 pg
same,MEAN CORPUSCULAR HEMOGLOBIN CONCENTRATION,[2],39.57 G/DL
same,MEAN CORPUSCULAR VOLUME,[2],63.8 fL
same,MONOCYTE,[2],0.33%
same,NEUTROPHIL,[2],6%
same,NUCLEATED RED BLOOD CELLS,[2],0 /100WBC
same,PLATELET COUNT,[2],532 x10E3/uL
same,ALANINE AMINOTRANSFERASE,[2],82 u/L
same,ALBUMIN,[2],4.03 G/DL
same,ALKALINE PHOSPHATASE,[2],468.67 u/L
same,ASPARTATE AMINOTRANSFERASE,[2],94 u/L
same,BLOOD UREA NITROGEN,[2],14.67 mg/dL
same,CARBON DIOXIDE,[2],26 mmol/L
same,CHLORIDE,[2],96.33 MEQ/L
same,CHOLESTEROL,[2],44.67 mg/dL
same,CREATINE PHOSPHOKINASE,[2],477.67 u/L
same,CREATININE,[2],0.2 mg/dL
same,GLUCOSE,[2],161.67 mg/dL
same,LACTATE DEHYDROGENASE,[2],137 u/L
same,LIPASE,[2],8.67 u/L
same,PHOSPHORUS,[2],10.3 mg/dL
same,POTASSIUM,[2],4.99 MEQ/L
same,SODIUM,[2],137.1 MEQ/L
same,TOTAL BILIRUBIN,[2],0.0667 mg/dL
same,TOTAL PROTEIN,[2],5.33 G/DL
same,URIC ACID,[2],0.77 mg/dL
same,ABSOLUTE BASOPHIL,[3],0 CELLS/uL
same,ABSOLUTE EOSINOPHIL,[3],0 CELLS/uL
same,ABSOLUTE LYMPHOCYTE,[3],8272 CELLS/uL
same,ABSOLUTE MONOCYTE,[3],65 CELLS/uL
same,ABSOLUTE SEGMENTED NEUTROPHIL,[3],663 CELLS/uL
same,BASOPHIL,[3],0%
same,EOSINOPHIL,[3],0%
same,ERYTHROCYTE COUNT,[3],5.57 x10E6/uL
same,HEMATOCRIT,[3],34.07%
same,HEMOGLOBIN,[3],13.37 G/DL
same,LEUKOCYTE COUNT,[3],9 x10E3/uL
same,LYMPHOCYTE,[3],92%
same,MEAN CORPUSCULAR HEMOGLOBIN,[3],24 pg
same,MEAN CORPUSCULAR HEMOGLOBIN CONCENTRATION,[3],39.23 G/DL
same,MEAN CORPUSCULAR VOLUME,[3],61.2 fL
same,MONOCYTE,[3],0.67%
same,NEUTROPHIL,[3],7.33%
same,NUCLEATED RED BLOOD CELLS,[3],0 /100WBC
same,PLATELET COUNT,[3],1014.67 x10E3/uL
same,ALANINE AMINOTRANSFERASE,[3],84.67 u/L
same,ALBUMIN,[3],4.23 G/DL
same,ALKALINE PHOSPHATASE,[3],412.67 u/L
same,ASPARTATE AMINOTRANSFERASE,[3],99 u/L
same,BLOOD UREA NITROGEN,[3],14.33 mg/dL
same,CARBON DIOXIDE,[3],35.33 mmol/L
same,CHLORIDE,[3],100.33 MEQ/L
same,CHOLESTEROL,[3],53 mg/dL
same,CREATINE PHOSPHOKINASE,[3],324.67 u/L
same,CREATININE,[3],0.12 mg/dL
same,GLUCOSE,[3],168.33 mg/dL
same,LACTATE DEHYDROGENASE,[3],165.33 u/L
same,LIPASE,[3],9.33 u/L
same,PHOSPHORUS,[3],10.6 mg/dL
same,POTASSIUM,[3],5.56 MEQ/L
same,SODIUM,[3],144.83 MEQ/L
same,TOTAL BILIRUBIN,[3],0.13 mg/dL
same,TOTAL PROTEIN,[3],5.77 G/DL
same,URIC ACID,[3],0.7 mg/dL
